Results: patent publication US20230097253A1, “NOVEL QUINAZOLINE COMPOUND AS THERAPEUTIC AGENT FOR METABOLIC DISORDERS” (BIOWAY., INC, priority 2020, published 2023)

How the values were obtained:
[1] = tested on: Huh7 cells induced with inflammatory response; test: Gene expression in liver cells induced with inflammatory response (qRT-PCR); format: cell-based; settings: Huh7 cells pretreated with IL-1β; 0.5, 2.5, 10 μM; FIG. 11, FIG. 12
Method: After culturing the Huh-7 cells to grow to a confluency of 80-90% in a 6 well plate, except for the control, the cells were pretreated with IL-1β and then treated with BW-3290, which is the compound of the present invention, diluted in the culture medium to concentrations of 0.5 μM, 2.5 μM, and 10 μM, so as to induce an inflammatory response.
(§1) Additionally, the total RNA was extracted using the RNeasy RNA isolation kit (Qiagen, Hilden, Germany).
(§2) Additionally, 10 μL of […] per mL of a cell lysis solution was additionally prepared.
(§3) Additionally, the cells were washed twice with cold PBS and 350 μL of RNA lysis buffer was added thereto.
(§4) Additionally, 70% EtOH was added to the lysate in an equal volume, mixed by pipetting, transferred to a spin column, and centrifuged at 8,000×g for 15 seconds.
Additionally, the flow-through solution was removed and 700 μL of a wash solution was added to the spin column, centrifuged at 8,000×g, and the flow-through solution was removed.
Additionally, 500 μL of the wash buffer containing EtOH was added to the spin column and centrifuged at 8,000×g for 2 minutes (repeated 2 times)
Additionally, the flow-through solution was discarded and centrifuged once more to completely dry the spin column membrane.
Additionally, the spin column was placed into a new Eppendorf tube and 50 μL of RNase-free water was added directly to the spin column membrane and centrifuged at 8,000×g for 1 minute to dissolve and isolate the RNA.
Additionally, RNA concentration was measured at OD 260 nm using the Nanophotometer N60 (Implen, Munich, Germany)
Additionally, 1 μg of total RNA was reverse transcribed in the first strand synthesis buffer containing oligo (dT) primer (6 μg/mL), random primer (3 μg/mL), 50 U of reverse transcriptase, 4 mM dNTP, […], 5 mM magnesium chloride (MgCl2), and 40 U of RNase inhibitor.
Additionally, cDNA was synthesized using a polymerase chain reaction (PCR) device which was set to undergo denaturation at 95° C. for 5 minutes, cDNA synthesis at 42° C. for 50 minutes, and denaturation at 95° C. for 5 minutes. […]

[2] = tested on: steatosis-induced Huh7 cells; test: Quantitative analysis of mRNA of lipogenesis-related factors (qRT-PCR); format: cell-based; settings: 250 μM PA, 0.5 μM, 24 hours, compared to the control group, FIG. 9-B
Method: To induce steatosis in Huh-7 cells in each well except for control cells, the Huh-7 cells were treated with PA bound to 2% BSA at a concentration of 250 μM except for the control, and the control cells were pretreated with 2% BSA without FA.
The cells in each well were treated with the compound of Chemical Formula 2 according to the present invention 0.5 μM and then cultured for 24 hours. The control cells and PA treated cells were treated with DMSO. All media were aspirated and the cells were gently washed 3 times with cold PBS.
as §1, §2, §3, §4
Additionally, the flow-through solution was removed and 700 μL of a wash solution was added to the spin column, centrifuged at 8,000×g, and the flow-through solution was removed. […]
Additionally, RNA concentration was measured at OD 260 nm using the Nanophotometer N60 (Implen, Munich, Germany) […]

DIAMOND™ mouse model = test: In-vivo activity in DIAMOND mouse model: body weight, liver weight, liver function enzymes; settings: DIAMOND mice, 16 mg/kg oral once daily for 8 weeks
Method: The DIAMOND™ mouse model, an animal model prepared using a Western diet and sugar water, was used. The DIAMOND™ mice were induced with WDSW for 14 weeks, and 12 mice were used for the control group and 12 mice for the BW-3290 treatment group, and BW-3290 was orally administered at 16 mg/kg once daily for 8 weeks. An autopsy was performed at week 22, and blood collection and tissue storage were performed for the individuals in each group.

[3] = week 22, compared to control group (VC), FIG. 17
[4] = vs control group (VC), statistical significance

CC(C)C(Nc1ncnc2nc[nH]c12)c1nc2cccc(Cl)c2c(=O)n1-c1ccccc1 (centres unmarked) [BW-3290, 2-(1-((7H-purin-6-yl)amino)-2-methylpropyl)-5-chloro-3-phenylquinazolin-4(3H)-one]
gene expression level of IL-6 [1]: decreased in a concentration-dependent manner | gene expression level of IL-8 [1]: decreased in a concentration-dependent manner | gene expression level of TNF-α [1]: decreased in a concentration-dependent manner | gene expression (mRNA) of FAS [2]: reduced | gene expression (mRNA) of SREBP-1c [2]: reduced | liver/body weight ratio (DIAMOND™ mouse model; week 22): improve | body weight (DIAMOND™ mouse model; [3]): decreased | liver weight (DIAMOND™ mouse model; [3]): decreased | alkaline phosphatase (ALP) level (DIAMOND™ mouse model; vs control group (VC)): decreased | alanine aminotransferase (ALT) level (DIAMOND™ mouse model; [4]): decreased | aspartate aminotransferase (AST) level (DIAMOND™ mouse model; [4]): decreased
